Results published in US20260226000A1, “Methadone Active Agents and Methods of Use Thereof” (Ensysce Biosciences Inc., priority 2023, published 2026).
Counter-ions that a name gives are not always drawn.

What was measured:
[1] = molecular target: hERG (human ether-à-go-go-related gene) channel expressed in CHO cells (Homo sapiens, UniProt Q12809); assay: ScreenPatch assay, hERG ion channel block (SyncroPatch 384PE patch clamp); conditions: for Methadone Active Agent/Methadone Ratio (hERG IC50): IC50 relative to racemic methadone HCl
Chain of hERG (human ether-à-go-go-related gene) channel expressed in CHO cells (Q12809 whole entry): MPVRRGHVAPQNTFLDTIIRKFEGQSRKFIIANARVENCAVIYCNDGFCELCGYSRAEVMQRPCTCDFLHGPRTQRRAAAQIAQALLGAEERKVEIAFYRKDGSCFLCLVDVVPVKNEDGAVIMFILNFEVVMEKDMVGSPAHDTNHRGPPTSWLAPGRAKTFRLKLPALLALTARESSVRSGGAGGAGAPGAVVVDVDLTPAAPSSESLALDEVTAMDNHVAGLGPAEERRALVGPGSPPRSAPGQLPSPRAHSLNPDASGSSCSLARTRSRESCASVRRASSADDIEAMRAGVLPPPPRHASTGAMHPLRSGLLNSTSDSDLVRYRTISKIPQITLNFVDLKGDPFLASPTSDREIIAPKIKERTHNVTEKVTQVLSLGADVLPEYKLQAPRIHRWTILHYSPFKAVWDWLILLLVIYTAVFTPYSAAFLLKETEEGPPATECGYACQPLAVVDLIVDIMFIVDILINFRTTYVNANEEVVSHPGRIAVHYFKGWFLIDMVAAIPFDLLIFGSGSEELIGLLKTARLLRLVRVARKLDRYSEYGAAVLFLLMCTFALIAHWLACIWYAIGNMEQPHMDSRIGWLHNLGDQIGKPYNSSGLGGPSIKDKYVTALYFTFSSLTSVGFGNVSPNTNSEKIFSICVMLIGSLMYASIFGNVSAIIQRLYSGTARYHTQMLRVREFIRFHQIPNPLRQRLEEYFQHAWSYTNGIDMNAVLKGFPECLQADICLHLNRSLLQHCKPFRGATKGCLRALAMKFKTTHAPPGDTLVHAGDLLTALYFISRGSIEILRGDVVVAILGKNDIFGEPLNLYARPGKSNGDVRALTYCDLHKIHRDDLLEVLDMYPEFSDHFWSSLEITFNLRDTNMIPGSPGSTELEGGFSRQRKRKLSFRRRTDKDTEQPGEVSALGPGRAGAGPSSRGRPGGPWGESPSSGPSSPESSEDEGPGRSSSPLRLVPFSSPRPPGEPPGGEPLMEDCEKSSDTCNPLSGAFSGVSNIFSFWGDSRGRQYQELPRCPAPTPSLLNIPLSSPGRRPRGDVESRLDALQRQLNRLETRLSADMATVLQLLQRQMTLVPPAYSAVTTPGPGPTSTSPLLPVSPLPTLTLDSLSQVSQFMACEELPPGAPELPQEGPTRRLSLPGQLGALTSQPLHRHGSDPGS

[2] = Maximally tolerated dose study by oral gavage administration

SMILES	IC50 [1] [µM]	clinical observations ([2]; doses up to 100 mg/kg)	Methadone Active Agent/Methadone Ratio (hERG IC50) [1]	clinical observations ([2]; 100 mg/kg and 125 mg/kg)	clinical observations ([2]; 50 and 75 mg/kg)
CCC(=O)C(CC(C)N(C)C)(c1ccccc1)c1ccccc1 (racemic) [Racemic Methadone HCl, Methadone]	1.89	–	–	–	–
C/C=C(/OC(=O)N(C)C(C)CNC(=O)[C@H](CCCNC(=N)N)NC(=O)c1ccccc1)C(C[C@@H](C)N(C)C)(c1ccccc1)c1ccccc1.O=C(O)C(F)(F)F (stereo partly drawn) [Levo 1ME active agent, (R)-6-(dimethylamino)-4,4-diphenylhept-2-en-3-yl (1-((S)-2-benzamido-5-guanidinopentanamido)propan-2-yl)(methyl)carbamate 2,2,2-trifluoroacetate]	> 100	did not have any clinical observations	>53	–	–
C/C=C(/OC(=O)N(C)C[C@@H](C)NC(=O)[C@H](CCCNC(=N)N)NC(=O)c1ccccc1)C(C[C@@H](C)N(C)C)(c1ccccc1)c1ccccc1.O=C(O)C(F)(F)F [Levo 2RME active agent, (R)-6-(dimethylamino)-4,4-diphenylhept-2-en-3-yl ((R)-2-((S)-2-benzamido-5-guanidinopentanamido)propyl)(methyl)carbamate 2,2,2-trifluoroacetate]	29.4	–	15.6	no clinical observations through 72 hr period or limited observations	some observations
C/C=C(/OC(=O)N(C)CCCCNC(=O)[C@H](CCCNC(=N)N)NC(=O)c1ccccc1)C(C[C@@H](C)N(C)C)(c1ccccc1)c1ccccc1.O=C(O)C(F)(F)F [Levo-Butyl active agent, (R)-6-(dimethylamino)-4,4-diphenylhept-2-en-3-yl (4-((S)-2-benzamido-5-guanidinopentanamido)butyl)(methyl)carbamate 2,2,2-trifluoroacetate]	51.5	–	27.3	no clinical observations through 72 hr period or limited observations	some observations
